# ChEMBL document CHEMBL5678818, “Discovery of potent SOS1 inhibitors that block RAS activation via disruption of the RAS-SOS1 interaction” (Proc Natl Acad Sci U S A, 2019)
# What was measured:
# [1] = target: Tyrosine-protein kinase HCK (Homo sapiens) (UniProt P08631); assay: Inhibition of HCK (unknown origin) assessed as residual activity at 1000 nM by KINOMEscan analysis relative to control
# [2] = target: Transient receptor potential cation channel subfamily M member 6 (Homo sapiens) (UniProt Q9BX84); assay: Inhibition of TRPM6 (unknown origin) assessed as residual activity at 1000 nM by KINOMEscan analysis relative to control
# [3] = target: Cyclin-dependent kinase 9 (Homo sapiens) (UniProt P50750); assay: Inhibition of CDK9 (unknown origin) assessed as residual activity at 1000 nM by KINOMEscan analysis relative to control
# [4] = target: T1, Dual specificity mitogen-activated protein kinase kinase 4 (Homo sapiens) (UniProt P45985); assay: Inhibition of MEK4 (unknown origin) assessed as residual activity at 1000 nM by KINOMEscan analysis relative to control
# T1 sequence (whole entry): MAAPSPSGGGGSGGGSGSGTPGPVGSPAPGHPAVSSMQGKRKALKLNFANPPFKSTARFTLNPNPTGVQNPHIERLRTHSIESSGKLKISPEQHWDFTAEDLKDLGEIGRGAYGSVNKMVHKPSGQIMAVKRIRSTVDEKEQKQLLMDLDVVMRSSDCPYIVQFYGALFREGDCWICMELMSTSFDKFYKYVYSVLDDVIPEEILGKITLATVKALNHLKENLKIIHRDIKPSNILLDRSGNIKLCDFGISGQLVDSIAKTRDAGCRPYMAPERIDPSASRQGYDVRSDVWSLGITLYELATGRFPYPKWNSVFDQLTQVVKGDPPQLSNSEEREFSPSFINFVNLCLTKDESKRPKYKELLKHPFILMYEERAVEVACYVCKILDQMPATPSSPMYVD
# [5] = target: Proto-oncogene tyrosine-protein kinase receptor Ret (Homo sapiens) (UniProt P07949); assay: Inhibition of RET (unknown origin) assessed as residual activity at 1000 nM by KINOMEscan analysis relative to control
# [6] = target: T2, Atypical kinase COQ8B, mitochondrial (Homo sapiens) (UniProt Q96D53); assay: Inhibition of ADCK4 (unknown origin) assessed as residual activity at 1000 nM by KINOMEscan analysis relative to control
# T2 sequence (whole entry): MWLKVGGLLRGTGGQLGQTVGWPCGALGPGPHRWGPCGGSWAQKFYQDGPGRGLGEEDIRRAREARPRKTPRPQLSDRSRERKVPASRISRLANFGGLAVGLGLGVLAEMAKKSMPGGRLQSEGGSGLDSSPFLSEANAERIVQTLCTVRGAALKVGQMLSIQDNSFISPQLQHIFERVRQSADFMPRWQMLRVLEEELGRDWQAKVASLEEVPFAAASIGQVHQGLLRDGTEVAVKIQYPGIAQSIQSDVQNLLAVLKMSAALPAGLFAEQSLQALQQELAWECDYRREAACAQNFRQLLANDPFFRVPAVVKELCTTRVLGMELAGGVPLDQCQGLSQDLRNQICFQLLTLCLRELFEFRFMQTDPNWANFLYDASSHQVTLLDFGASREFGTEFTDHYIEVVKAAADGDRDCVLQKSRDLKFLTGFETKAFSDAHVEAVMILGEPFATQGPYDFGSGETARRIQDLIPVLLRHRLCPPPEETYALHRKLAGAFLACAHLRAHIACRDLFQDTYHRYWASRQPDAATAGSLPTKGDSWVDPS
# [7] = tested on: Epidermal growth factor receptor (Homo sapiens), P00533 [UNDEFINED MUTATION]; assay: Inhibition of EGFR L747-T751del/Sins mutant (unknown origin) assessed as residual activity at 1000 nM by KINOMEscan analysis relative to control
# [8] = tested on: Phosphatidylinositol 4,5-bisphosphate 3-kinase catalytic subunit alpha isoform (Homo sapiens), P42336 [E542K]; assay: Inhibition of PIK3CA E542K mutant (unknown origin) assessed as residual activity at 1000 nM by KINOMEscan analysis relative to control
# [9] = target: Angiopoietin-1 receptor (Homo sapiens) (UniProt Q02763); assay: Inhibition of TIE2 (unknown origin) assessed as residual activity at 1000 nM by KINOMEscan analysis relative to control
# [10] = target: T3, Inhibitor of nuclear factor kappa-B kinase subunit beta (Homo sapiens) (UniProt O14920); assay: Inhibition of IKK-beta (unknown origin) assessed as residual activity at 1000 nM by KINOMEscan analysis relative to control
# T3 sequence (whole entry): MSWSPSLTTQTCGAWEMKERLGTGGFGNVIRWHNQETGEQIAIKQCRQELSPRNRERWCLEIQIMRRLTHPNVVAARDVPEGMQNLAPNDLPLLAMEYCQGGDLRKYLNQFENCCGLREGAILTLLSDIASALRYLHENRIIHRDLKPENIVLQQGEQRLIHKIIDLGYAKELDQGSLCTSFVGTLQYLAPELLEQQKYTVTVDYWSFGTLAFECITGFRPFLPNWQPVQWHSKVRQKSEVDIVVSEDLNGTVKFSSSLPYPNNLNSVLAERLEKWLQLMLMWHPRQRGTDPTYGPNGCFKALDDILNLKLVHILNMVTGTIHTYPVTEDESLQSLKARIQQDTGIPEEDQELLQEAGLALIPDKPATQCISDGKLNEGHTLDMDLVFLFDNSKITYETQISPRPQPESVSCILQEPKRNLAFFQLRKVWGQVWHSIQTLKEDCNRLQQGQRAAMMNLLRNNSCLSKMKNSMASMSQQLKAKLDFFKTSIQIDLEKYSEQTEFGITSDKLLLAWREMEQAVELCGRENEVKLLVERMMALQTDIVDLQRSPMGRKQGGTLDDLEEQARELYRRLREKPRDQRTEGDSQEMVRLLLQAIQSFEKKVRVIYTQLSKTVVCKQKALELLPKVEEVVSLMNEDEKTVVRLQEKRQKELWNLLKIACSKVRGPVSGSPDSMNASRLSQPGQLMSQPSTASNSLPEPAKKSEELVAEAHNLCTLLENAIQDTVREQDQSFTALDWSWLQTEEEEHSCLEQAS
# [11] = target: Death-associated protein kinase 3 (Homo sapiens) (UniProt O43293); assay: Inhibition of DAPK3 (unknown origin) assessed as residual activity at 1000 nM by KINOMEscan analysis relative to control
# [12] = tested on: Proto-oncogene tyrosine-protein kinase receptor Ret (Homo sapiens), P07949 [V804L]; assay: Inhibition of RET V804L mutant (unknown origin) assessed as residual activity at 1000 nM by KINOMEscan analysis relative to control
# [13] = target: Wee1-like protein kinase 2 (Homo sapiens) (UniProt P0C1S8); assay: Inhibition of WEE2 (unknown origin) assessed as residual activity at 1000 nM by KINOMEscan analysis relative to control
# Wee1-like protein kinase 2 (Homo sapiens), sequence (P0C1S8 whole entry, looked up): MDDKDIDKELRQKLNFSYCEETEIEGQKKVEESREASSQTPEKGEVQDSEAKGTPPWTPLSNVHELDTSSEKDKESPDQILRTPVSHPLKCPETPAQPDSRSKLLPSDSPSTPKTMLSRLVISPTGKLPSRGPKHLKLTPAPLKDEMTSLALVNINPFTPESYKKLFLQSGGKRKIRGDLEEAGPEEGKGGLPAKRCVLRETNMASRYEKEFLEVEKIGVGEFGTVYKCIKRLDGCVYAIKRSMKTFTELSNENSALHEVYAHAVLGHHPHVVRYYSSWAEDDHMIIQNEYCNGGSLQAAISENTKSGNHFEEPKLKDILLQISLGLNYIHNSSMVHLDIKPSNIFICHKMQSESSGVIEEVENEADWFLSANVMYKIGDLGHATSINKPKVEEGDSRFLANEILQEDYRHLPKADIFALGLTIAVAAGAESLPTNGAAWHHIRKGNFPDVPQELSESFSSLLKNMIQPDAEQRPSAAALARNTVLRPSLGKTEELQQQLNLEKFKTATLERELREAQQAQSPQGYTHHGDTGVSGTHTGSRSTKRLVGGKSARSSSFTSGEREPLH
# Proto-oncogene tyrosine-protein kinase receptor Ret (Homo sapiens), sequence (P07949 whole entry): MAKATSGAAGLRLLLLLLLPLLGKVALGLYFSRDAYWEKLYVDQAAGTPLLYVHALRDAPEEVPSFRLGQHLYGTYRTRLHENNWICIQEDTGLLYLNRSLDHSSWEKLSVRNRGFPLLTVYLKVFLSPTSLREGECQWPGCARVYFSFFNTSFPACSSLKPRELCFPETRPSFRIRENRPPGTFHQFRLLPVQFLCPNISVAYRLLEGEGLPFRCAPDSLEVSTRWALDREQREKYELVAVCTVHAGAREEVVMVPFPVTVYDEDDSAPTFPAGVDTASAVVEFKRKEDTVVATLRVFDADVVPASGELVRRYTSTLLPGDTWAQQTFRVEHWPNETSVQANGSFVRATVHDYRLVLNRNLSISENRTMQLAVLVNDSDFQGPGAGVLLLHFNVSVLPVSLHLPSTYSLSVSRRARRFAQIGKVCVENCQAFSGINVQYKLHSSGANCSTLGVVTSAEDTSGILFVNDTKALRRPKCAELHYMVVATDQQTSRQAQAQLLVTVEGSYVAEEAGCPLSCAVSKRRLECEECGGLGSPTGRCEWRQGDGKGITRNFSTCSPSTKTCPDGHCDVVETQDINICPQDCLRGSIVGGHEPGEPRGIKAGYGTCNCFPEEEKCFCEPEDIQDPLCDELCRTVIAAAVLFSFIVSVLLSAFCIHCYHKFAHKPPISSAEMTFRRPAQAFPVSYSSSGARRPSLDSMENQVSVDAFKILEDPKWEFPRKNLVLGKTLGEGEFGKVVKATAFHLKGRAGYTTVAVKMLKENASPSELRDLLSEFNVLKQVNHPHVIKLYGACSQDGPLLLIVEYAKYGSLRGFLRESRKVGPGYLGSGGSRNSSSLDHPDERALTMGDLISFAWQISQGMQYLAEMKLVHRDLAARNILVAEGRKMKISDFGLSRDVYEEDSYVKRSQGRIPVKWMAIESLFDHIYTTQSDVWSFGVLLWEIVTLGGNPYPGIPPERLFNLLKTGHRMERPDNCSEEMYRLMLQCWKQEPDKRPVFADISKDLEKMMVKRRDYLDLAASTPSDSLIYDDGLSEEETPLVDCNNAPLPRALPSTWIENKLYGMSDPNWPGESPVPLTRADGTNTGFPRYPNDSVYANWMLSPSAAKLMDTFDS
# Tyrosine-protein kinase HCK (Homo sapiens), sequence (P08631 2-526 limits assumed): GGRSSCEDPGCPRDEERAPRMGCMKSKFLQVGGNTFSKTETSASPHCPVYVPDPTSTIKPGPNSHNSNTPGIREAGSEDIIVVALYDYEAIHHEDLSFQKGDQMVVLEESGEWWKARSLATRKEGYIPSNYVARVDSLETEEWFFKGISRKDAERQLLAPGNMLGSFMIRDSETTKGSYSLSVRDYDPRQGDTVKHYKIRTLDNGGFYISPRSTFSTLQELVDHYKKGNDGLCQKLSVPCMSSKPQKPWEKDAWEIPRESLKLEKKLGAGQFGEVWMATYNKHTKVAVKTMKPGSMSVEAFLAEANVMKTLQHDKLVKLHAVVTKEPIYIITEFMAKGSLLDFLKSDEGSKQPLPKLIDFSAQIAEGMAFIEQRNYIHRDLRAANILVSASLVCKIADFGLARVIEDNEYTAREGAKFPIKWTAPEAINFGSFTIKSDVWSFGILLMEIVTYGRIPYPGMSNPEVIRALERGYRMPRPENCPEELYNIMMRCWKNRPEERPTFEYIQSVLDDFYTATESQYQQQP
# Angiopoietin-1 receptor (Homo sapiens), sequence (Q02763 whole entry): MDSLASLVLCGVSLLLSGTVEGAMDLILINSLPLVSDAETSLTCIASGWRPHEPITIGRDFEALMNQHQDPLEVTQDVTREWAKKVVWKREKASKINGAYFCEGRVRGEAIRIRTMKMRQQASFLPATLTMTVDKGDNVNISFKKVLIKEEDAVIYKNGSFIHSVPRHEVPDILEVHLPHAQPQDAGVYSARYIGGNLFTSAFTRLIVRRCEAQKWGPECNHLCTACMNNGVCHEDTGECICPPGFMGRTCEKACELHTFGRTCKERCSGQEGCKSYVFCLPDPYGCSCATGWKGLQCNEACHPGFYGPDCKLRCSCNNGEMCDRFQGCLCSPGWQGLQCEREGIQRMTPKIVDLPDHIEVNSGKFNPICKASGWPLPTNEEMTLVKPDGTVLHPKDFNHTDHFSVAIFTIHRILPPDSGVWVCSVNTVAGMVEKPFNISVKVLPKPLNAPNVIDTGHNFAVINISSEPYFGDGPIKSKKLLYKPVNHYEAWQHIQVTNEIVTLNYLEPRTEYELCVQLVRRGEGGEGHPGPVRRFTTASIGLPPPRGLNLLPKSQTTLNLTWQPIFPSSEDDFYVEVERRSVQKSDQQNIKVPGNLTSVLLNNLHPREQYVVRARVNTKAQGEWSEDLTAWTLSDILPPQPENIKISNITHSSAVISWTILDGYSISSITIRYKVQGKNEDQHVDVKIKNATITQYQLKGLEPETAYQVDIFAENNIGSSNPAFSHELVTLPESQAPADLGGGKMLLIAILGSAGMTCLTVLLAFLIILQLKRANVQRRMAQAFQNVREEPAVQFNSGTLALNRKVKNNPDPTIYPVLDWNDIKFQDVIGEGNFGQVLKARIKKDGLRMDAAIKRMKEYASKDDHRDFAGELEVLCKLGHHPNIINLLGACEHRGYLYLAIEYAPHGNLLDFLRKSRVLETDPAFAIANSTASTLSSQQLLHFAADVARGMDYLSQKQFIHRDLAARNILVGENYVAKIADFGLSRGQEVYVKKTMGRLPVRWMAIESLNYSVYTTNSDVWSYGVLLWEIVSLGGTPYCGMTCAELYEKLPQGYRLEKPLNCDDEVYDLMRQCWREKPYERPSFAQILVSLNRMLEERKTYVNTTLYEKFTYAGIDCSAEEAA
# Phosphatidylinositol 4,5-bisphosphate 3-kinase catalytic subunit alpha isoform (Homo sapiens), P42336 [E542K], sequence (P42336 whole entry E542K, canonical isoform): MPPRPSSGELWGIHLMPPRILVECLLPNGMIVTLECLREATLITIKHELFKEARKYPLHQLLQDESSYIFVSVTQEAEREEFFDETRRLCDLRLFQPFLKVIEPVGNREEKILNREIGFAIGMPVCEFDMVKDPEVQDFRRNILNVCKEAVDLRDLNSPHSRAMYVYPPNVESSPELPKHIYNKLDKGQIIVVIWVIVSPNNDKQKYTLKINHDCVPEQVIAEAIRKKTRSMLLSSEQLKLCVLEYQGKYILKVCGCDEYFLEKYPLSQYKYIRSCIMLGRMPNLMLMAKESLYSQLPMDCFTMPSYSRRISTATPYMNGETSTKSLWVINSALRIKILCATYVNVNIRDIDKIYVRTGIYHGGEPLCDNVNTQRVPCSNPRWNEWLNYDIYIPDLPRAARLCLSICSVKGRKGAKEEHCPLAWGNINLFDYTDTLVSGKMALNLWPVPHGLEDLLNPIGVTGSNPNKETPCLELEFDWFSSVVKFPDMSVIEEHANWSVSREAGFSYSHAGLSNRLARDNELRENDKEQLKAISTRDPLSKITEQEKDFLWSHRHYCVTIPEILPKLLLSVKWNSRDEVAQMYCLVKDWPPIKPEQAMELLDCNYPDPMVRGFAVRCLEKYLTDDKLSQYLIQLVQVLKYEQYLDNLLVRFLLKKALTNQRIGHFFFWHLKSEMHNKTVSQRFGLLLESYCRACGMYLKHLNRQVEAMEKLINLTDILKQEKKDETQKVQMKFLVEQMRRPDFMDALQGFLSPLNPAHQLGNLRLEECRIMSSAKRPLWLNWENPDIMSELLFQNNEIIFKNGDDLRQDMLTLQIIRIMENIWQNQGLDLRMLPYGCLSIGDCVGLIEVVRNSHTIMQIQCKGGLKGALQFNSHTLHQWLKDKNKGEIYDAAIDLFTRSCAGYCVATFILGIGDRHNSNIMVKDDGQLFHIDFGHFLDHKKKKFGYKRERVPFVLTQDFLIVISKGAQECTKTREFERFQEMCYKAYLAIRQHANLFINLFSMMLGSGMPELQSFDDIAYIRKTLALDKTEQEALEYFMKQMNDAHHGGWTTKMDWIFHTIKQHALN
# Cyclin-dependent kinase 9 (Homo sapiens), sequence (P50750 whole entry): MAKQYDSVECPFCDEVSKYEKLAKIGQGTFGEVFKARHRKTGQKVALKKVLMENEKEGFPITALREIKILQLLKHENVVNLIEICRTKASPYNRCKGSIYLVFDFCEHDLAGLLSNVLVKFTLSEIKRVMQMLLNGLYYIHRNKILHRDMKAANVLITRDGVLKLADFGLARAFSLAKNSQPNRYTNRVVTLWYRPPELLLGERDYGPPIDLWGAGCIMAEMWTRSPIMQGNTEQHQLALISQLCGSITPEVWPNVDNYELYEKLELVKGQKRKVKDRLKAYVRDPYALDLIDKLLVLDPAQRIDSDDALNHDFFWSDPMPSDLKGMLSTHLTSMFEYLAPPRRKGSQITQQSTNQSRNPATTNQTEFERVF
# Proto-oncogene tyrosine-protein kinase receptor Ret (Homo sapiens), P07949 [V804L], sequence (P07949 whole entry V804L): as the sequence (P07949 whole entry) above, with V804L counted along it
SMILES,Activity [1] [%],Activity [2] [%],Activity [3] [%],Activity [4] [%],Activity [5] [%],Activity [6] [%],Activity [7] [%],Activity [8] [%],Activity [9] [%],Activity [10] [%],Activity [11] [%],Activity [12] [%],Activity [13] [%]
COc1cc2nc(C)nc(N[C@H](C)c3cccc(-c4cn[nH]c4)c3)c2cc1OC,77,84,95,100,94,89,99,78,81,73,76,65,65
COc1cc2ncnc(N[C@H](C)c3cccc4ccccc34)c2cc1OC,93,100,95,97,92,100,5.8,96,100,82,100,100,100
